How the values were obtained:
Assay in all cases: relative viability (nuclei count vs DMSO), 5 days (fraction); higher = more cells survive
CAL-12T = system: CAL-12T
Outline: (§1)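 One day after seeding in 1536-well plates, lung cancer cell lines were dosed by pin tool. Dosing was either single-drug or a fixed anchor-drug dose plus five library-drug doses (not always all listed) in √10 steps. After 5 days, nuclei were stained in one fix-and-stain step and counted on 4× images, and relative viability is the nuclei count of treated wells over that of vehicle wells, given as the median of duplicate plates.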

COR-L 105 = system: COR-L 105
Outline: as §1

EKVX = system: EKVX
Outline: as §1

EMC-BAC-2 = system: EMC-BAC-2
Outline: as §1

H3255 = system: H3255
Outline: as §1

LC-2-ad = system: LC-2-ad
Outline: as §1

LK-2 = system: LK-2
Outline: as §1

LXF-289 = system: LXF-289
Outline: as §1

NCI-H1395 = system: NCI-H1395
Outline: as §1

NCI-H1437 = system: NCI-H1437
Outline: as §1

NCI-H1651 = system: NCI-H1651
Outline: as §1

NCI-H1755 = system: NCI-H1755
Outline: as §1

NCI-H1793 = system: NCI-H1793
Outline: as §1

NCI-H1915 = system: NCI-H1915
Outline: as §1

NCI-H1944 = system: NCI-H1944
Outline: as §1

NCI-H2085 = system: NCI-H2085
Outline: as §1

NCI-H2087 = system: NCI-H2087
Outline: as §1

NCI-H2228 = system: NCI-H2228
Outline: as §1

NCI-H2347 = system: NCI-H2347
Outline: as §1

NCI-H661 = system: NCI-H661
Outline: as §1

PC-3 [JPC-3] = system: PC-3 [JPC-3]
Outline: as §1

SK-LU-1 = system: SK-LU-1
Outline: as §1

SK-MES-1 = system: SK-MES-1
Outline: as §1

SMILES: O=c1[nH]c2ccccc2n1C1CCN(CCCC(c2ccc(F)cc2)c2ccc(F)cc2)CC1 [Pimozide] + CS(=O)(=O)N1CCN(Cc2cc3nc(-c4cccc5[nH]ncc45)nc(N4CCOCC4)c3s2)CC1 [Pictilisib] (partner 1 µM)
- relative viability (CAL-12T; first compound 0.08 µM): 0.399
- relative viability (CAL-12T; first compound 0.253 µM): 0.244
- relative viability (CAL-12T; first compound 0.8 µM): 0.418
- relative viability (CAL-12T; first compound 2.53 µM): 0.462
- relative viability (CAL-12T; first compound 8 µM): 0.332
- relative viability (COR-L 105; first compound 0.253 µM): 0.507
- relative viability (COR-L 105; first compound 0.8 µM): 0.449
- relative viability (COR-L 105; first compound 2.53 µM): 0.338
- relative viability (COR-L 105; first compound 8 µM): 0.353
- relative viability (EKVX; first compound 0.253 µM): 0.349
- relative viability (EKVX; first compound 0.8 µM): 0.431
- relative viability (EKVX; first compound 2.53 µM): 0.409
- relative viability (EKVX; first compound 8 µM): 0.401
- relative viability (EMC-BAC-2; first compound 0.08 µM): 0.486
- relative viability (EMC-BAC-2; first compound 0.253 µM): 0.51
- relative viability (EMC-BAC-2; first compound 0.8 µM): 0.549
- relative viability (EMC-BAC-2; first compound 2.53 µM): 0.532
- relative viability (EMC-BAC-2; first compound 8 µM): 0.54
- relative viability (H3255; first compound 0.253 µM): 0.406
- relative viability (H3255; first compound 0.8 µM): 0.575
- relative viability (H3255; first compound 2.53 µM): 0.456
- relative viability (H3255; first compound 8 µM): 0.506
- relative viability (LC-2-ad; first compound 0.08 µM): 0.594
- relative viability (LC-2-ad; first compound 0.253 µM): 0.405
- relative viability (LC-2-ad; first compound 0.8 µM): 0.461
- relative viability (LC-2-ad; first compound 2.53 µM): 0.553
- relative viability (LC-2-ad; first compound 8 µM): 0.305
- relative viability (LK-2; first compound 0.08 µM): 0.556
- relative viability (LK-2; first compound 0.253 µM): 0.605
- relative viability (LK-2; first compound 0.8 µM): 0.454
- relative viability (LK-2; first compound 2.53 µM): 0.547
- relative viability (LK-2; first compound 8 µM): 0.553
- relative viability (LXF-289; first compound 0.08 µM): 0.75
- relative viability (LXF-289; first compound 0.253 µM): 0.799
- relative viability (LXF-289; first compound 0.8 µM): 0.781
- relative viability (LXF-289; first compound 2.53 µM): 0.744
- relative viability (LXF-289; first compound 8 µM): 0.719
- relative viability (NCI-H1395; first compound 0.08 µM): 0.647
- relative viability (NCI-H1395; first compound 0.253 µM): 0.598
- relative viability (NCI-H1395; first compound 0.8 µM): 0.634
- relative viability (NCI-H1395; first compound 2.53 µM): 0.679
- relative viability (NCI-H1395; first compound 8 µM): 0.681
- relative viability (NCI-H1437; first compound 0.08 µM): 0.543
- relative viability (NCI-H1437; first compound 0.253 µM): 0.464
- relative viability (NCI-H1437; first compound 0.8 µM): 0.499
- relative viability (NCI-H1437; first compound 2.53 µM): 0.421
- relative viability (NCI-H1437; first compound 8 µM): 0.406
- relative viability (NCI-H1651; first compound 0.08 µM): 0.62
- relative viability (NCI-H1651; first compound 0.253 µM): 0.506
- relative viability (NCI-H1651; first compound 0.8 µM): 0.685
- relative viability (NCI-H1651; first compound 2.53 µM): 0.543
- relative viability (NCI-H1651; first compound 8 µM): 0.465
- relative viability (NCI-H1755; first compound 0.08 µM): 0.438
- relative viability (NCI-H1755; first compound 0.253 µM): 0.441
- relative viability (NCI-H1755; first compound 0.8 µM): 0.418
- relative viability (NCI-H1755; first compound 2.53 µM): 0.368
- relative viability (NCI-H1755; first compound 8 µM): 0.307
- relative viability (NCI-H1793; first compound 0.08 µM): 0.296
- relative viability (NCI-H1793; first compound 0.253 µM): 0.302
- relative viability (NCI-H1793; first compound 0.8 µM): 0.311
- relative viability (NCI-H1793; first compound 2.53 µM): 0.357
- relative viability (NCI-H1793; first compound 8 µM): 0.275
- relative viability (NCI-H1915; first compound 0.08 µM): 0.972
- relative viability (NCI-H1915; first compound 0.253 µM): 0.892
- relative viability (NCI-H1915; first compound 0.8 µM): 0.524
- relative viability (NCI-H1915; first compound 2.53 µM): 0.889
- relative viability (NCI-H1915; first compound 8 µM): 0.796
- relative viability (NCI-H1944; first compound 0.08 µM): 0.331
- relative viability (NCI-H1944; first compound 0.253 µM): 0.337
- relative viability (NCI-H1944; first compound 0.8 µM): 0.325
- relative viability (NCI-H1944; first compound 2.53 µM): 0.35
- relative viability (NCI-H1944; first compound 8 µM): 0.33
- relative viability (NCI-H2085; first compound 0.08 µM): 0.446
- relative viability (NCI-H2085; first compound 0.253 µM): 0.532
- relative viability (NCI-H2085; first compound 0.8 µM): 0.525
- relative viability (NCI-H2085; first compound 2.53 µM): 0.486
- relative viability (NCI-H2085; first compound 8 µM): 0.415
- relative viability (NCI-H2087; first compound 0.08 µM): 0.9
- relative viability (NCI-H2087; first compound 0.253 µM): 0.994
- relative viability (NCI-H2087; first compound 0.8 µM): 0.824
- relative viability (NCI-H2087; first compound 2.53 µM): 0.784
- relative viability (NCI-H2087; first compound 8 µM): 0.62
- relative viability (NCI-H2228; first compound 0.08 µM): 0.378
- relative viability (NCI-H2228; first compound 0.253 µM): 0.386
- relative viability (NCI-H2228; first compound 0.8 µM): 0.312
- relative viability (NCI-H2228; first compound 2.53 µM): 0.34
- relative viability (NCI-H2228; first compound 8 µM): 0.29
- relative viability (NCI-H2347; first compound 0.08 µM): 0.611
- relative viability (NCI-H2347; first compound 0.253 µM): 0.599
- relative viability (NCI-H2347; first compound 0.8 µM): 0.601
- relative viability (NCI-H2347; first compound 2.53 µM): 0.605
- relative viability (NCI-H2347; first compound 8 µM): 0.605
- relative viability (NCI-H661; first compound 0.08 µM): 0.447
- relative viability (NCI-H661; first compound 0.253 µM): 0.337
- relative viability (NCI-H661; first compound 0.8 µM): 0.454
- relative viability (NCI-H661; first compound 2.53 µM): 0.381
- relative viability (NCI-H661; first compound 8 µM): 0.408
- relative viability (PC-3 [JPC-3]; first compound 0.253 µM): 0.695
- relative viability (PC-3 [JPC-3]; first compound 0.8 µM): 0.654
- relative viability (PC-3 [JPC-3]; first compound 2.53 µM): 0.698
- relative viability (PC-3 [JPC-3]; first compound 8 µM): 0.686
- relative viability (SK-LU-1; first compound 0.08 µM): 0.643
- relative viability (SK-LU-1; first compound 0.253 µM): 0.566
- relative viability (SK-LU-1; first compound 0.8 µM): 0.551
- relative viability (SK-LU-1; first compound 2.53 µM): 0.436
- relative viability (SK-LU-1; first compound 8 µM): 0.469
- relative viability (SK-MES-1; first compound 0.08 µM): 0.305
- relative viability (SK-MES-1; first compound 0.253 µM): 0.308
- relative viability (SK-MES-1; first compound 0.8 µM): 0.36
- relative viability (SK-MES-1; first compound 2.53 µM): 0.38
- relative viability (SK-MES-1; first compound 8 µM): 0.341
